# Literature values in US20190231704A1 (Yale University, priority 2016, published 2019).
# Molecular target: T1, ALK4 (Homo sapiens, UniProt P36896)
# T1 sequence (P36896 24-505): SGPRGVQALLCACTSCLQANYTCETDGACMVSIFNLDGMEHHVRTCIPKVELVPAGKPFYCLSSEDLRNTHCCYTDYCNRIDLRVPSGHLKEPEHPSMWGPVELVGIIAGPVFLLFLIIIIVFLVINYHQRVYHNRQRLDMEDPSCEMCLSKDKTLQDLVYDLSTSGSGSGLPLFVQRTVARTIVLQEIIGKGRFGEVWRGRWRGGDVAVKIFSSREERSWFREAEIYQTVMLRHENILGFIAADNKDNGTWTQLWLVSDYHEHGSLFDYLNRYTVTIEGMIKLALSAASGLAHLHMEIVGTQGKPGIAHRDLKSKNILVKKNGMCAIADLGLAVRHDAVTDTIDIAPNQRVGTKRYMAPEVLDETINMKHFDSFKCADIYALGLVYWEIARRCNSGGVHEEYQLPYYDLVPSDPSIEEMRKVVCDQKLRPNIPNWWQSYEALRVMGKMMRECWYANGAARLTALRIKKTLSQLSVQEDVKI
compound,measurement,value
Cc1cccc(-c2[nH]c(C(C)(C)C)nc2-c2ccc3c(c2)OCO3)n1 [SB-505124],IC50,129 nM
